According to patent US7205304B2, “Sulfonyl-Derivatives as novel inhibitors of histone deacetylase” (Janssen Pharmaceutica N.V., priority 2002, dated 2007):
≈ marks a conversion by molar mass, not a printed value.

Assays:
[1] = test system: A2780 ovarian carcinoma cells; assay: Antiproliferative activity on A2780 cells (MTT); format: cell-based, human; settings: Homo sapiens, A2780, 96 h, four days of incubation, read-out: Cellular activity pIC50 (converted)
Procedure: Cellular activity of the compounds of formula (I) was determined on A2780 tumour cells using a colorimetric assay for cell toxicity or survival (Mosmann Tim, Journal of Immunological Methods 65: 55–63, 1983)(see example C.2).
All compounds tested were dissolved in DMSO and further dilutions were made in culture medium. Final DMSO concentrations never exceeded 0.1% (v/v) in cell proliferation assays. Controls contained A2780 cells and DMSO without compound and blanks contained DMSO but no cells. MTT was dissolved at 5 mg/ml in PBS. A glycine buffer comprised of 0.1 M glycine and 0.1 M NaCl buffered to pH 10.5 with NaOH (1 N) was prepared (all reagents were from Merck).
The human A2780 ovarian carcinoma cells (a kind gift from Dr. T. C. Hamilton [Fox Chase Cancer Centre, Pennsylvania, USA]) were cultured in RPMI 1640 medium supplemented with 2 mM L-glutamine, 50 μg/ml gentamicin and 10% fetal calf serum. Cells were routinely kept as monolayer cultures at 37° C. in a humidified 5% CO2 atmosphere. Cells were passaged once a week using a trypsin/EDTA solution at a split ratio of 1:40. All media and supplements were obtained from Life Technologies. Cells were free of mycoplasma contamination as determined using the Gen-Probe Mycoplasma Tissue Culture kit (supplier: BioMérieux).
Cells were seeded in NUNC™ 96-well culture plates (Supplier: Life Technologies) and allowed to adhere to the plastic overnight. Densities used for plating were 1500 cells per well in a total volume of 200 μl medium. After cell adhesion to the plates, medium was changed and drugs and/or solvents were added to a final volume of 200 μl. Following four days of incubation, medium was replaced by 200 μl fresh medium and cell density and viability was assessed using an MTT-based assay. To each well, 25 μl MTT solution was added and the cells were further incubated for 2 hours at 37° C. The medium was then carefully aspirated and the blue MTT-formazan product was solubilized by addition of 25 μl glycine buffer followed by 100 μl of DMSO. […] Within an experiment, the results for each experimental condition are the mean of 3 replicate wells. For initial screening purposes, compounds were tested at a single fixed concentration of 10^−6 M. For active compounds, the experiments were repeated to establish full concentration-response curves. For each experiment, controls (containing no drug) and a blank incubation (containing no cells or drugs) were run in parallel. The blank value was subtracted from all control and sample values. For each sample, the mean value for cell growth (in absorbance units) was expressed as a percentage of the mean value for cell growth of the control. […] Herein the effects of test compounds are expressed as pIC50 (the negative log value of the IC50-value).

[2] = Kinetic solubility in aqueous media (nephelometry); format: physicochemical; settings: phosphate citrate buffer, pH 7.4, aqueous buffer, kinetic from dmso stock, phosphate citrate buffer pH 7.4, turbidity of three dilution steps; read-out: Solubility Score
Procedure: Kinetic solubility in aqueous media measures the ability of a compound to stay in aqueous solution upon dilution (see example C.3).
DMSO-stock solutions are diluted with a single aqueous buffer solvent in 3 consecutive steps. For every dilution turbidity is measured with a nephelometer.
In the first dilution step, 10 μl of a concentrated stock-solution of the active compound, solubilized in DMSO (5 mM), was added to 100 μl phosphate citrate buffer pH 7.4 and mixed. In the second dilution step, an aliquot (20 μl) of the first dilution step was further dispensed in 100 μl phosphate citrate buffer pH 7.4 and mixed. Finally, in the third dilution step, a sample (20 μl) of the second dilution step was further diluted in 100 μl phosphate citrate buffer pH 7.4 and mixed. All dilutions were performed in 96-well plates. Immediately after the last dilution step the turbidity of the three consecutive dilution steps were measured with a nephelometer. Dilution was done in triplicate for each compound to exclude occasional errors. Based on the turbidity measurements a ranking is performed into 3 classes. Compounds with high solubility obtained a score of 3 and for this compounds the first dilution is clear. Compounds with medium solubility obtained a score of 2. For these compounds the first dilution is unclear and the second dilution is clear. […] The solubility of 112 compounds was measured.

[3] = biological target: histone deacetylase (HeLa nuclear extracts); assay: In vitro assay for inhibition of histone deacetylase; format: biochemical; settings: [3H]acetylated histone H4 peptide substrate
Procedure: The in vitro assay for inhibition of histone deacetylase (see example C.1) measures the inhibition of HDAC enzymatic activity obtained with the compounds of formula (I).
HeLa nuclear extracts (supplier: Biomol) were incubated at 60 μg/ml with 2×10^−8 M of radiolabeled peptide substrate. As a substrate for measuring HDAC activity a synthetic peptide, i.e. the amino acids 14–21 of histone H4, was used. The substrate is biotinylated at the NH2-terminal part with a 6-aminohexanoic acid spacer, and is protected at the COOH-terminal part by an amide group and specifically [^3H]acetylated at lysine 16. The substrate, biotin-(6-aminohexanoic)Gly-Ala-([^3H]-acetyl-Lys-Arg-His-Arg-Lys-Val-NH2), was added in a buffer containing 25 mM Hepes, 1 M sucrose, 0.1 mg/ml BSA and 0.01% Triton X-100 at pH 7.4. After 30 min the deacetylation reaction was terminated by the addition of HCl and acetic acid. (final concentration 0.035 mM and 3.8 mM respectively). After stopping the reaction, the free ^3H-acetate was extracted with ethylacetate. After mixing and centrifugation, the radioactivity in an aliquot of the upper (organic) phase was counted in a β-counter.
For each experiment, controls (containing HeLa nuclear extract and DMSO without compound), a blank incubation (containing DMSO but no HeLa nuclear extract or compound) and samples (containing compound dissolved in DMSO and HeLa nuclear extract) were run in parallel. In first instance, compounds were tested at a concentration of 10^−5M. […] In each test the blank value was substracted from both the control and the sample values. The control sample represented 100% of substrate deactylation. For each sample the radioactivity was expressed as a percentage of the mean value of the controls. […] Herein the effects of test compounds are expressed as pIC50 (the negative log value of the IC50-value).

Row | IC50 [1] [nM] | solubility [2] [µM] | Enzyme activity pIC50 [3] | SMILES
1 | 209 | < 75.8 | 8.117 | O=C(NO)c1cnc(N2CCN(S(=O)(=O)c3ccc(-c4ccccc4Cl)cc3)CC2)nc1 [Compound 108]
2 | 4060 | > 454 | 5.914 | O=C(NO)c1ccc(N2CCN(S(=O)(=O)c3cccs3)CC2)cc1 [Compound 70]
3 | 4080 | < 75.8 | <5 | NCCNC(=O)c1ccc(N2CCN(S(=O)(=O)c3ccc4ccccc4c3)CC2)cc1 [Compound 18]
4 | 8910 | > 454 | 5.753 | Cc1noc(C)c1S(=O)(=O)N1CCN(c2ccc(C(=O)NO)cc2)CC1 [Compound 64]
5 | > 10000 | > 454 | 5.978 | O=C(NO)c1ccc(N2CCN(S(=O)(=O)c3cc(S(=O)(=O)c4ccccc4)cs3)CC2)cc1 [Compound 69]
6 | 68.9 | < 75.8 | 7.691 | COc1ccc(-c2ccc(S(=O)(=O)N3CCN(c4ncc(C(=O)NO)cn4)CC3)cc2)cc1 [Compound 175]
7 | 2840 | > 454 | 6.481 | O=C(NO)c1ccc(CN2CCN(S(=O)(=O)c3ccc4ccccc4c3)CC2)cc1 [Compound 88]
8 | 942 | < 75.8 | 6.346 | CN(C)c1cccc2c(S(=O)(=O)N3CCN(c4ccc(C(=O)NO)cc4)CC3)cccc12 [Compound 72]
9 | 286 | > 454 | 8.01 | O=C(NO)c1ccc(N2CCN(S(=O)(=O)c3ccc4ccccc4c3)CC2)nc1 [Compound 142]
10 | 1260 | 75.8 to 454 (≈ 35.4 to 213 µg/mL) | 7.869 | Cc1cccc(C)c1-c1ccc(S(=O)(=O)N2CCN(c3ncc(C(=O)NO)cn3)CC2)cc1 [Compound 133]
11 | 1360 | < 75.8 | 6.227 | O=C(NO)c1ccc(N2CCN(S(=O)(=O)c3ccc(Cl)cc3)CC2)cc1 [Compound 76]
12 | 4290 | < 75.8 | 6.238 | Cc1ccc(S(=O)(=O)N2CCN(c3ccc(C(=O)NO)cc3)CC2)cc1 [Compound 79]
13 | 75.5 | < 75.8 | 7.99 | O=C(NO)c1cnc(N2CCN(S(=O)(=O)c3ccc(-c4ccc(F)cc4)cc3)CC2)nc1 [Compound 178]

More lines, now with the values behind:

Row | SMILES | IC50 [1] [nM] | solubility [2] [µM] | Enzyme activity pIC50 [3]
14 | O=C(NO)c1cnc(N2CCN(S(=O)(=O)c3ccc(-c4cccc(C(F)(F)F)c4)cc3)CC2)nc1 [Compound 102] | 353 | 75.8 to 454 (≈ 38.5 to 231 µg/mL) | 7.162
15 | O=C(NO)c1cnc(N2CCN(S(=O)(=O)c3ccc(-c4ccsc4CN4CCN(CCOCCO)CC4)cc3)CC2)nc1 [Compound 150] | 164 | 75.8 to 454 (≈ 47.9 to 287 µg/mL) | 8.011
16 | O=C(NO)c1cnc(N2CCN(S(=O)(=O)c3ccc(-c4cc(Cl)cc(Cl)c4)cc3)CC2)nc1 [Compound 176] | 828 | 75.8 to 454 (≈ 38.5 to 231 µg/mL) | 6.513
17 | O=C(NO)c1cnc(N2CCN(S(=O)(=O)c3ccc(-c4ccsc4CN(CCO)CCO)cc3)CC2)nc1 [Compound 145] | 279 | < 75.8 | 8.06
18 | O=C(NO)c1cnc(N2CCN(S(=O)(=O)c3ccc(-c4ccc(CN5CCN(CCO)CC5)cc4)cc3)CC2)nc1 [Compound 166] | 61.4 | < 75.8 | 7.969
19 | O=C(NO)c1cnc(N2CCN(S(=O)(=O)c3ccc(-c4cccc(CCN5CCCC5)c4)cc3)CC2)nc1 [Compound 127] | 68.9 | > 454 | 8.482
20 | O=C(NO)c1cnc(N2CCN(S(=O)(=O)c3ccc(-c4cccc(CN5CCOCC5)c4)cc3)CC2)nc1 [Compound 167] | 108 | > 454 | 7.579
21 | O=C(NO)c1cnc(N2CCN(S(=O)(=O)c3ccc(-c4cccc5cccnc45)cc3)CC2)nc1 [Compound 111] | 440 | < 75.8 | 7.561
22 | COc1ccc(-c2ccc(S(=O)(=O)N3CCN(c4ncc(C(=O)NO)cn4)CC3)cc2)c(OC)c1OC [Compound 134] | 316 | 75.8 to 454 (≈ 40.1 to 241 µg/mL) | 7.662
23 | O=C(NO)c1cnc(N2CCN(S(=O)(=O)c3ccc(-c4ccccc4CN4CCOCC4)cc3)CC2)nc1 [Compound 158] | 446 | 75.8 to 454 (≈ 40.8 to 245 µg/mL) | 7.784
24 | COc1ccc(-c2ccc(S(=O)(=O)N3CCN(c4ncc(C(=O)NO)cn4)CC3)cc2)c(OC)c1 [Compound 99] | 242 | > 454 | 7.316
25 | O=C(NO)c1cnc(N2CCN(S(=O)(=O)c3ccc(S(=O)(=O)c4ccccc4)s3)CC2)nc1 [Compound 183] | 2320 | 75.8 to 454 (≈ 38.6 to 232 µg/mL) | 7.631
26 | O=C(NO)c1cnc(N2CCN(S(=O)(=O)c3ccc(-c4ccccn4)s3)CC2)nc1 [Compound 182] | 87.1 | < 75.8 | 7.634
27 | O=C(NO)c1cnc(N2CCN(S(=O)(=O)c3ccc4cccnc4c3)CC2)nc1 [Compound 91] | 783 | > 454 | 7.688
28 | CN(C)CC1CN(c2ncc(C(=O)NO)cn2)CCN1S(=O)(=O)c1ccc(-c2ccccc2)cc1 (stereo not drawn) [Compound 143] | 1320 | > 454 | 7.002
29 | CN(C)Cc1sccc1-c1ccc(S(=O)(=O)N2CCN(c3ncc(C(=O)NO)cn3)CC2)cc1 [Compound 124] | 47.9 | > 454 | 8.358
30 | CC(C)N(C)CCc1cccc(-c2ccc(S(=O)(=O)N3CCN(c4ncc(C(=O)NO)cn4)CC3)cc2)c1 [Compound 173] | 70.5 | > 454 | 8.423
31 | O=C(NO)c1cnc(N2CCN(S(=O)(=O)c3ccc(-c4ccc(F)cc4F)cc3)CC2)nc1 [Compound 107] | 144 | 75.8 to 454 (≈ 36 to 216 µg/mL) | 7.663
